Data from patent publication US20160361314A1, “COMBINATION OF AN ALK INHIBITOR AND A CDK INHIBITOR FOR THE TREATMENT OF CELL PROLIFERATIVE DISEASES” (NOVARTIS AG, priority 2013, published 2016).

Columns and labels:
Assay in all cases: Loewe additivity (CHALICE) synergy screen, CellTiter-Glo viability, 7x7 dose matrix
Assay type in all cases: cell-based
Parameters in all cases: key to Max Combo Effect: growth inhibition scale; 100 = stasis
[1] = test system: SH-SY5Y human neuroblastoma cells; conditions: SH-SY5Y (F1174L)
Experimental: (§1) The synergistic interaction of drug combinations were assessed based on the Loewe Additivity Model using Chalice software [CombinatoRx, Cambridge Mass.]). […] 27:659-66. The software compares the response (% inhibition or % reduction of cell viability) of drug treatment from a combination of two agents to the response of the agents acting alone, against the drug-with-itself dose-additive reference model (the Loewe Additivity Model). Deviations from dose additives can be assessed numerically with a “synergy score” which quantifies the overall strength of combination effect. A synergy score >0 indicates a synergistic combination. In order to ensure only strongly synergistic combinations were selected, the acceptance criteria were set at a higher level. Strongly synergistic combinations were defined as having both a synergy score >2, a synergy score that is twice as large as the background (non-synergy) model would predict, and a maximum efficacy of >100, a value equivalent to stasis, as determined from the growth inhibition calculation.
(§2) After treatment, cell viabilty (quantity of viable cells) for each test mixtures were determined by the CellTiter-Glo® (CTG) luminescent cell viability assay (Promega) described in the Assay section, infra. […] The response to treatment (% reduction of cell viability) was analyzed using Chalice software [CombinatoRx, Cambridge Mass.]). Data evaluation and graph generation were performed using Microsoft Excel software and Chalice software.
(§3) The combinations were tested in duplicate using a 7×7 dose matrix block in 1536 well format with a cell proliferation readout as described in the Assay section infra.
(§4) All synergy calculations were performed using CHALICE software package from Zalicus and potential synergistic interactions between compound combinations were assessed using the Excess Inhibition 2D matrix according to the Loewe additivity model and were reported as synergy score (Table 10) (Lehar et al). Strongly synergistic combination were identified as having both (1) a synergy score greater than 2, a synergy score that is twice as large as the background (non-synergy) model would predict, and (2) a maximum efficacy of >100, a value roughly equivalent to stasis, as determined from the growth inhibition calculation.
(§5) Cell viability were determined by measuring cellular ATP content using the CellTiter-Glo® (CTG) luminescent cell viability assay (Promega). […] Reduced and enhanced luminescent signal values (responses) were calculated relative to untreated (control) cells, and the calculated signal value proportional to the cell viability.
(§6) Synergistic combinations were identified based on the Loewe Addivity Model. To measure the effects of drug combinations on the cell viability, cells from the 20 cell lines listed in Table 1 above were seeded into 1536-well assay plates at a density 300 cells per well in a 7 μL final volume and incubated at 37° C. overnight in a GNF Systems incubator with 95% RH and 5% CO2.
(§7) A six-point dose response curve for the test compounds were prepared in a 384 well ECHO compatible source plate (Labcyte P-05525) with 3-fold serial dilution series. For example, for a six-point dose response curve and a top compound concentration of 5 mM, the concentration of the compounds in the source well were 5 mM, 1.67 mM, 0.56 mM, 0.19 mM, 0.06 mM and 0.02 mM.
(§8) Approximately 18 hours after plating, compound combinations were generated on the fly by transferring 7.5 nL of compound from the pre-diluted source plates using the Labcyte ECHO555 integrated onto the ACP-1 system with replicate plates per cell line; the final DMSO concentration per well was 0.2%. It is noted that the total volume in the wells was 7 μL.
(§9) The well at the intersection of the first column and first row which received no compound was dosed with 2×7.5 nL of DMSO and served as control.

[2] = test system: NB-1691 human neuroblastoma cells; conditions: NB-1691 (WT); for Max Combo Effect: in % (unit assumed)
Experimental: as §1, §2, §3, §4, §5, §6, §7, §8, §9

[3] = test system: SK-N-AS human neuroblastoma cells; conditions: SK-N-AS (WT)
Experimental: as §1, §2, §3, §4, §5, §6, §7, §8, §9

[4] = test system: IMR-5 human neuroblastoma cells
Experimental: as §1, §2, §3, §4, §5, §6, §7, §8, §9

[5] = test system: KELLY human neuroblastoma cells; conditions: KELLY (F1174L)
Experimental: as §1, §2, §3, §4, §5, §6, §7, §8, §9

[6] = test system: SK-N-FI human neuroblastoma cells; conditions: SK-N-FI (WT); for Max Combo Effect: in % (unit assumed)
Experimental: as §1, §2, §3, §4, §5, §6, §7, §8, §9

[7] = test system: NB-SD human neuroblastoma cells; conditions: NB-SD (F1174L); for Max Combo Effect: in % (unit assumed)
Experimental: as §1, §2, §3, §4, §5, §6, §7, §8, §9

[8] = test system: CHP-134 human neuroblastoma cells; conditions: for Max Combo Effect: in % (unit assumed)
Experimental: as §1, §2, §3, §4, §5, §6, §7, §8, §9

[9] = test system: LAN-5 human neuroblastoma cells; conditions: LAN-5 (R1275Q)
Experimental: as §1, §2, §3, §4, §5, §6, §7, §8, §9

[10] = test system: NLF human neuroblastoma cells; conditions: NLF (WT)
Experimental: as §1, §2, §3, §4, §5, §6, §7, §8, §9

[11] = test system: SK-N-BE(2) human neuroblastoma cells; conditions: SK-N-BE(2) (WT)
Experimental: as §1, §2, §3, §4, §5, §6, §7, §8, §9

[12] = test system: NB-1 human neuroblastoma cells; conditions: for Max Combo Effect: in % (unit assumed)
Experimental: as §1, §2, §3, §4, §5, §6, §7, §8, §9

## CN(C)C(=O)c1cc2cnc(Nc3ccc(N4CCNCC4)cn3)nc2n1C1CCCC1 [Compound B, 7-cyclopentyl-N,N-dimethyl-2-((5-(piperazin-1-yl)pyridin-2-yl)amino)-7H-pyrrolo[2,3-d]pyrimidine-6-carboxamide]
[1]; Table 2
  Max Combo Effect: 86.8
  Synergy score (Mean): 0.811
[1]; Table 3
  Max Combo Effect: 35.3
  Synergy score (Mean): 0.09
[2]; Table 2
  Synergy score (Mean): 1.032
  Max Combo Effect: 121.1
[2]; Table 3
  Synergy score (Mean): 0.38
  Max Combo Effect: 91.57
[3]; Table 2
  Synergy score (Mean): 0.503
[3]; Table 2, in % (unit assumed)
  Max Combo Effect: 64.7
[3]; Table 3
  Synergy score (Mean): 0.48
[4]; IMR-5 (ALK WT), Table 2
  Max Combo Effect: 82.0
  Synergy score (Mean): 0.788
[4]; IMR-5 (WT), Table 3
  Max Combo Effect: 89.02
  Synergy score (Mean): 1.04
[5]; Table 2
  Max Combo Effect: 60.5
  Synergy score (Mean): 0.255
[5]; Table 3
  Max Combo Effect: 27.66
  Synergy score (Mean): 0.19
[6]; Table 2
  Synergy score (Mean): 0.435
  Max Combo Effect: 60.3
[6]; Table 3
  Synergy score (Mean): 0.21
  Max Combo Effect: 51.2
[7]; Table 2
  Synergy score (Mean): 1.476
  Max Combo Effect: 98.6
[7]; Table 3
  Synergy score (Mean): 0.97
  Max Combo Effect: 61.5
[8]; CHP-134 (ALK WT), Table 2
  Synergy score (Mean): 0.388
  Max Combo Effect: 52.3
[8]; CHP-134 (WT), Table 3
  Synergy score (Mean): 0.35
  Max Combo Effect: 48.76
[9]; Table 2
  Max Combo Effect: 99.2
  Synergy score (Mean): 1.161
[9]; Table 3
  Max Combo Effect: 73.59
  Synergy score (Mean): 0.57
[10]; Table 2
  Max Combo Effect: 43.9
  Synergy score (Mean): 0.122
[10]; Table 3
  Max Combo Effect: 45.7
  Synergy score (Mean): 0.54
[11]; Table 2
  Max Combo Effect: 75.2
  Synergy score (Mean): 0.628
[11]; Table 3
  Max Combo Effect: 93.3
  Synergy score (Mean): 1.41
[12]; NB-1 (WT Amp), Table 2
  Synergy score (Mean): 1.429
  Max Combo Effect: 111.0
[12]; NB-1 (WT_Amp), Table 3
  Synergy score (Mean): 0.34
  Max Combo Effect: 40.57
